The values below come from US5990151A, “Optically active substituted phenylalkylamine derivatives” (Taisho Pharmaceutical Co., Ltd., priority 1995, dated 1999).

Structures can show the parent of a compound that is named as a salt.

For series [1], the target named is T1, sigma 1 receptor (Cavia porcellus, UniProt Q60492).
T1 construct: A membrane specimen prepared from the total brains of guinea pigs; from tissue; host or cells: total brains of Hartley guinea pigs (membrane specimen)
As to the kind of experiment: Receptor binding experiment, sigma 1, [3H](+)-pentazocine, membrane of total brains of guinea pigs. Set-up: species or system Hartley guinea pigs. To be noted: [3H](+)-pentazocine (2 nM), 25° C., 120 minutes, 50 mM Tris-HCl pH 7.4; non-specific: 10 μM haloperidol; read-out: Sigma 1 (IC50, concentration of the test drug which inhibits individual binding by 50%).
Experimental: As experimental animals, Hartley guinea pigs were used. […] 121 (1994) using [^3 H] (+)-pentazocine (sigma 1) or [^3 H]1,3-di-o-tolylguanidine (DTG) (sigma 2) as a [^3 H]-labelled ligand.
A membrane specimen prepared from the total brains of guinea pigs, a [^3 H] ligand and a test drug were reacted in 50 mM Tris-HCl buffer (pH 7.4). For examining sigma 1, [^3 H](+)-pentazocine (2 nM) as a [^3 H] ligand was reacted at 25° C. for 120 minutes. For examining sigma 2, [^3 H] DTG (1 nM) as a [^3 H] ligand was reacted in the presence of 10^-7 M (+)-pentazocine at 25° C. for 90 minutes. After the completion of the reaction, the reaction solution was vacuum filtered through a glass filter (GF/B), and the radioactivity of the filter was determined with a liquid scintillation spectrometer.
The binding which occurred in the reaction in the presence 10 μM haloperidol was regarded as non-specific binding, and the difference obtained by subtracting non-specific binding from the total binding was regarded as specific binding. An inhibition curve was obtained by reacting a [^3 H] ligand at a specific concentration with a test drug at varied concentrations under the conditions described above. From this inhibition curve, the concentration of the test drug which inhibits individual binding by 50% (IC50) is obtained.

For series [2], the system named is sigma 1 receptor. As to conditions: cited from earlier work; for affinity for sigma 1 receptor: (agonist), Trends in Pharmacological Sciences, Vol. 13, pp. 85-86.
The test system of a further series is humans. To be noted: cited from earlier work.

T1 sequence (Q60492 whole entry): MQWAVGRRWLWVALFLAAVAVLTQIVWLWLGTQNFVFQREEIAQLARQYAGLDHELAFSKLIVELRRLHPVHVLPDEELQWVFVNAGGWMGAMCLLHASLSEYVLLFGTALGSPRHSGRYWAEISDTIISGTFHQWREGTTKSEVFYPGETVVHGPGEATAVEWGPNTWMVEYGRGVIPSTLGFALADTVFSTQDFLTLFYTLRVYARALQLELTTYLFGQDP

Consider `CCCNC(CCC(C)C)Cc1ccc(OC)c(OCCc2ccccc2)c1` (single isomer, unassigned; (-)) [A, (-)-N-propyl-1-(3-methylbutyl)-2-[4-methoxy-3-(2-phenylethoxy)phenyl]ethylamine hydrochloride], for which the IC50 on sigma 1 receptor [1] came to 0.46 nM. On to `CCCCC(Cc1ccc(OC)c(OCCc2ccccc2)c1)NCCC` (single isomer, unassigned; (-)) [B, (-)-N-propyl-1-butyl-2-[4-methoxy-3-(2-phenylethoxy)-phenyl]ethylamine hydrochloride], for which the IC50 at sigma 1 receptor [1] came to 0.73 nM.

With `C[C@@H]1CN(CCCn2c3ccccc3c3ccccc32)C[C@H](C)N1` [Rimcazole], in the series on sigma 1 receptor [2] (sigma antagonist, background art), the “specificity to and affinity for sigma 1 receptor” value is “not sufficient”.

With `C=CCN1CCC2(C)c3cc(O)ccc3CC1C2C` (stereo not shown) [SKF10047, N-arylnormethazocine], the “affinity for sigma 1 receptor” value in the series on sigma 1 receptor [2] is on record as “high affinity”. The “develop psychotic symptoms in humans” value with humans was “develop psychotic symptoms in humans”. With `CC(C)=CCN1CCC2(C)c3cc(O)ccc3CC1C2C` (stereo not shown) [pentazocine], in the series on sigma 1 receptor [2], the “affinity for sigma 1 receptor” value is recorded as “high affinity”. Besides, the “develop psychotic symptoms in humans” value in the series with humans is on record as “develop psychotic symptoms in humans”.
